Experiment: amount of tranilast in the stents, measured by high performance liquid chromatography
Type: physicochemical
Conditions: impregnation in stent with supercritical CO2, 40 to 140° C.
Method: In the experimental example 2, a plural number of luminal stents, formed of plural biodegradable polymer material, in particular plural fibers of biodegradable polymer, in which the drug was impregnated as the pressure and the temperature of CO2 were varied, were formed, and measurements were made of the amount of the drug for each of these stents.
Of the stents, obtained in Examples 14 to 25, the amount of tranilast was measured using a high performance liquid chromatography.

COc1ccc(C=CC(=O)Nc2ccccc2C(=O)O)cc1OC [tranilast, N-(3,4-dimethoxycinnamoyl) anthranilic acid]
thermal decomposition of drug during impregnation: without undergoing thermal decomposition

From patent publication US20030104030A1, “Stent for blood vessel and material for stent for blood vessel” (priority 2002, published 2003)
